# Assay results from patent US20040082558A1, “Administration of estradiol metabolites for inhibition of drug-induced nephrotoxicity” (priority 2002, published 2004).
# How the values were obtained:
# Format in all cases: in vivo, rat
# PAN-nephropathic rats [1] = test: Acute measurements of renal hemodynamics and excretory function at 12 weeks; settings: 12 weeks of treatment
# Protocol: (§1) After baseline metabolic parameters were measured, animals were randomly assigned to receive subcutaneous saline (3 ml/kg; Control group, n=9) or puromycin aminonucleoside (PAN) (75 mg/kg; drug-induced nephrotoxic animals, n=26). PAN is a drug widely used to produce drug-induced nephrotoxicity in laboratory animals. Grond, J., et al., Contributions to Nephrology 60:83 (1988), the disclosure of which is incorporated herein by reference. Injections of PAN (20 mg/kg) were repeated after 2, 4, 8 and 10 weeks of treatment. Three hours after the initial injections, control animals were implanted with osmotic minipumps (model 2ML4, Alza, Palo Alto, Calif.) containing vehicle (polyethylene glycol 400, 2.5 μl/hour), whereas PAN-treated animals were implanted with osmotic minipumps containing either vehicle (PAN group, n=13) or 2-hydroxyestradiol (10 μg/kg/hour, PAN+2OHE group, n=13). Assignment to the PAN and PAN+2OHE groups was random. Six animals in the PAN group and 2 animals in the PAN+2OHE group died during the treatment, and these animals were not used in the final data analysis.
# At 12 weeks into treatment, animals were anesthetized with pentobarbital (45 mg/kg i.p.) and instrumented for measurements of renal hemodynamics and excretory function. Two polyethylene (PE)-50 catheters were inserted into left jugular vein for delivery of supplemental anesthetics and saline infusion (50 μl/min), respectively. Another PE-50 catheter was inserted into left carotid artery and connected to a blood-pressure analyzer (Micro-Med., Inc., Louisville, Ky.) for continuous measurement of blood pressure and heart rate. A PE-10 catheter was inserted into the left ureter to facilitate collection of urine, and a flow probe (Model 1RB; Transonic Systems, Inc., Ithaca, N.Y.) was placed on the left renal artery for determination of renal blood flow, which was used to calculate renal vascular resistance. Next, an infusion of ^14C-inulin (0.035 μCi/20 μl saline/min) was initiated and after 60 minutes, two 30-minute clearance periods were conducted. A mid-point blood sample (300 μl) was collected and plasma and urine ^14C-inulin radioactivity was measured. Renal clearance of ^14C-inulin was calculated as an estimate of glomerular filtration rate.
# ED1 positive cells = test: Immunohistochemical staining for ED1 positive cells (macrophage infiltration) in glomeruli and interstitium; settings: 12 weeks of treatment, kidney sections
# Protocol: (§2) Animals were killed by an overdose of anesthetic and kidneys were removed and weighed. One kidney was fixed in 10% formalin buffer and the second kidney was quick-frozen in liquid nitrogen and stored at −70° C. Kidney tissue samples were sectioned and processed into paraffin blocks for light microscopy. For labeling of collagen IV, renal cortical segments (5 μm) were incubated overnight at 4° C. with rabbit anti-mouse collagen IV antibody (dilution 1/500 ) obtained from Chemicon International Inc. (Temecula, Calif.). A primary monoclonal mouse antibody ( 1/200 dilution; Dako Corporation, Carpenteria, Calif.) was used to label proliferating cell nuclear antigen (PCNA). […] Nonspecific staining was assessed by replacing the primary antibody with phosphate buffered saline. […] Immunochemical staining for collagen IV and PCNA quantitatively was done with a SAMBA 4000 image analyzer (Image Products International, Chantilly, Va.) using specialized computer software (Immuno-Analysis, version 4.1, Microsoft, Richmond, Wash.), a color video camera and a Compaq computer. […] Ten high power fields (×400) were assessed for staining density or positively marked cells for ED-1. […] Staining intensity of positive areas was also assessed (mean optical density) and a mean quick score was then calculated (mean optical density×labeling index).
# PAN-nephropathic rats [2] = test: Metabolic cage measurements (24-hour urine, intake, plasma) in PAN-nephropathic rats
# Protocol: A total of thirty-five, male Sprague Dawley rats (approximately 290 grams) were used. Rats were housed in the University of Pittsburgh Medical Center animal care facility (temperature, 22° C.; light cycle, 12 hours; relative humidity, 55%). Animals were fed Pro Lab RMH 3000 rodent diet (PMI Nutrition Inc., St Louis, Mo.) and were given water ad libitum. Institutional guidelines for animal welfare were followed, and the University of Pittsburgh Institutional Animal Care and Use Committee approved experimental protocols.
# Before initiating treatment, and 3, and 6 and 11 weeks into the treatments, animals were placed in metabolic cages and allowed to acclimatize for two days before conducting the 24-hour measurements of urine volume, food and water intake and urinary sodium, potassium, creatinine, and protein excretion. Tail vein blood samples were also taken for measurement of plasma sodium, potassium, albumin and creatinine. Plasma and urine samples were analyzed for sodium and potassium concentrations using a flame photometer (Model IL-943; Instrumentations Laboratory Inc., Lexington, Ma.) and for creatinine concentrations using a creatinine analyzer (Creatinine Analyzer 2, Beckman Instrument, Inc., Fullerton Calif., USA). Total urine proteins were measured by a spectrophotometric assay using bicinchoninic acid reagent (Pierce; Rockford, Ill.) and a modification of Lowry method. Lowry, O. H., et al., J. Biol. Chem. 193: 265 (1951), the disclosure of which is incorporated herein by reference.
# as §1
# PAN-treated rats = test: Mortality during 12-week treatment of PAN-treated rats; settings: n=13 per group
# Protocol: as §1
# [3] = test system: proliferating cell nuclear antigen (PCNA); test: Glomerular immunohistochemical staining for PCNA, quantitative image analysis; settings: 12 weeks of treatment, kidney sections
# Protocol: as §2
# collagen IV = test: Glomerular immunohistochemical staining for collagen IV, quantitative image analysis; settings: 12 weeks of treatment, kidney sections
# Protocol: as §2
# PAN-nephropathic rats [4] = test: Plasma testosterone radioimmunoassay; settings: 12 weeks of treatment, male rats
# Protocol: An aliquot of mid-point blood sample drawn during the first clearance period was used for testosterone measurements. Plasma testosterone levels were determined by radioimmunoassay using a commercial kit provided by ICN Biomedicals, Inc. (Costa Mesa, Calif.) according to the protocol of the manufacturer.
smiles,measurement,setting,value
"CN(C)c1ncnc2c1ncn2[C@@H]1O[C@H](CO)[C@@H](N)[C@H]1O [PAN, puromycin aminonucleoside]",Blood pressure (in words),PAN-nephropathic rats [1],increased blood pressure
same,"GFR, inulin clearance (in words)",PAN-nephropathic rats [1],"decreased renal blood flow, renal plasma flow, hematocrit and glomerular filtration rate"
same,Hematocrit,PAN-nephropathic rats [1],27 ± 2%
same,Left Kidney,PAN-nephropathic rats [1],2.10 ± 0.13 g
same,Glomerular Filtration Rate,PAN-nephropathic rats [1]; 14C-inulin clearance,0.21 ± 0.07 ml/min/g kidney
same,Body Weight,PAN-nephropathic rats [1]; acute experiment,368 ± 15
same,Mean Blood Pressure,PAN-nephropathic rats [1]; anesthetized,153.0 ± 6.1 mm Hg
same,Renal Blood Flow,PAN-nephropathic rats [1]; anesthetized,2.73 ± 0.24 ml/min/g kidney
same,Renal Plasma Flow,PAN-nephropathic rats [1]; anesthetized,2.00 ± 0.19 ml/min/g kidney
same,Renal Vascular Resistance,PAN-nephropathic rats [1]; anesthetized,63.6 ± 7.6 mm Hg/ml/min/g kid
same,Urine Volume,PAN-nephropathic rats [1]; anesthetized,4.43 ± 0.85 μl/min/g kidney
same,"Number of ED1 positive cells in glomeruli and interstitium (in words, FIG. 4)",ED1 positive cells,several-fold increase in the number of ED1 positive cells
same,Body Weight,PAN-nephropathic rats [2]; 0 wks of treatment (baseline),293 ± 4 g
same,Creatinine Excretion,PAN-nephropathic rats [2]; 0 wks of treatment (baseline),14.9 ± 2.5 mg/day
same,FE - K+ (fractional excretion of potassium),PAN-nephropathic rats [2]; 0 wks of treatment (baseline),10.5 ± 0.7%
same,FE - Na+ (fractional excretion of sodium),PAN-nephropathic rats [2]; 0 wks of treatment (baseline),0.13 ± 0.01%
same,Fluid Intake,PAN-nephropathic rats [2]; 0 wks of treatment (baseline),5.33 ± 0.37 mL/h/kg
same,Food Intake,PAN-nephropathic rats [2]; 0 wks of treatment (baseline),75 ± 2 g/kg/day
same,Plasma Cholesterol,PAN-nephropathic rats [2]; 0 wks of treatment (baseline),53.6 ± 2.3 mg/dL
same,Potassium Excretion,PAN-nephropathic rats [2]; 0 wks of treatment (baseline),10.9 ± 0.72 mEq/day/kg
same,Sodium Excretion,PAN-nephropathic rats [2]; 0 wks of treatment (baseline),4.48 ± 0.95 mEq/day/kg
same,Urine Volume,PAN-nephropathic rats [2]; 0 wks of treatment (baseline),1.78 ± 0.275 mL/h/kg
same,Body Weight,PAN-nephropathic rats [2]; 3 wks of treatment,313 ± 1 g
same,Creatinine Excretion,PAN-nephropathic rats [2]; 3 wks of treatment,11.1 ± 1.1 mg/day
same,FE - K+ (fractional excretion of potassium),PAN-nephropathic rats [2]; 3 wks of treatment,27.3 ± 3.7 %
same,FE - Na+ (fractional excretion of sodium),PAN-nephropathic rats [2]; 3 wks of treatment,0.37 ± 0.06%
same,Fluid Intake,PAN-nephropathic rats [2]; 3 wks of treatment,7.58 ± 0.667 mL/h/kg
same,Food Intake,PAN-nephropathic rats [2]; 3 wks of treatment,74 ± 4 g/kg/day
same,Plasma Cholesterol,PAN-nephropathic rats [2]; 3 wks of treatment,353 ± 39.4 mg/dL
same,Potassium Excretion,PAN-nephropathic rats [2]; 3 wks of treatment,10.7 ± 0.82 mEq/day/kg
same,Sodium Excretion,PAN-nephropathic rats [2]; 3 wks of treatment,3.80 ± 0.58 mEq/day/kg
same,Urine Volume,PAN-nephropathic rats [2]; 3 wks of treatment,4.192 ± 0.462 mL/h/kg
same,Body Weight,PAN-nephropathic rats [2]; 6 wks of treatment,337 ± 15 g
same,Creatinine Excretion,PAN-nephropathic rats [2]; 6 wks of treatment,8.8 ± 0.9 mg/day
same,FE - K+ (fractional excretion of potassium),PAN-nephropathic rats [2]; 6 wks of treatment,30.1 ± 4.6 %
same,FE - Na+ (fractional excretion of sodium),PAN-nephropathic rats [2]; 6 wks of treatment,0.71 ± 0.13 %
same,Fluid Intake,PAN-nephropathic rats [2]; 6 wks of treatment,6.92 ± 0.542 mL/h/kg
same,Food Intake,PAN-nephropathic rats [2]; 6 wks of treatment,69 ± 3 g/kg/day
same,Plasma Cholesterol,PAN-nephropathic rats [2]; 6 wks of treatment,283.5 ± 39.5 mg/dL
same,Potassium Excretion,PAN-nephropathic rats [2]; 6 wks of treatment,8.39 ± 0.61 mEq/day/kg
same,Sodium Excretion,PAN-nephropathic rats [2]; 6 wks of treatment,3.92 ± 0.38 mEq/day/kg
same,Urine Volume,PAN-nephropathic rats [2]; 6 wks of treatment,3.9 ± 0.512 mL/h/kg
same,Body Weight,PAN-nephropathic rats [2]; 11 wks of treatment,382 ± 27 g
same,Creatinine Excretion,PAN-nephropathic rats [2]; 11 wks of treatment,18.7 ± 3.0 mg/day
same,FE - K+ (fractional excretion of potassium),PAN-nephropathic rats [2]; 11 wks of treatment,47.1 ± 7.7 %
same,FE - Na+ (fractional excretion of sodium),PAN-nephropathic rats [2]; 11 wks of treatment,1.18 ± 0.35 %
same,Fluid Intake,PAN-nephropathic rats [2]; 11 wks of treatment,6.62 ± 0.708 mL/h/kg
same,Food Intake,PAN-nephropathic rats [2]; 11 wks of treatment,53 ± 5 g/kg/day
same,Plasma Cholesterol,PAN-nephropathic rats [2]; 11 wks of treatment,349.6 ± 43.0 mg/dL
same,Potassium Excretion,PAN-nephropathic rats [2]; 11 wks of treatment,9.63 ± 1.60 mEq/day/kg
same,Sodium Excretion,PAN-nephropathic rats [2]; 11 wks of treatment,4.18 ± 0.58 mEq/day/kg
same,Urine Volume,PAN-nephropathic rats [2]; 11 wks of treatment,4.712 ± 0.692 mL/h/kg
same,"Creatinine clearance (in words, FIGS. 1B and 1C)",PAN-nephropathic rats [2]; chronic treatment,reduced creatinine clearance
same,"Plasma creatinine levels (in words, FIG. 1A)",PAN-nephropathic rats [2]; chronic treatment,increased plasma creatinine levels
same,"Urinary protein excretion (UPE; in words, FIG. 2A)",PAN-nephropathic rats [2]; chronic treatment,induced severe proteinuria
same,Animals died during the treatment,PAN-treated rats,Six
same,"Labeling index of glomerular immunoreactive PCNA (in words, FIG. 3)",[3],markedly expanded
same,"Glomerular collagen IV, labeling index (in words, FIGS. 5 and 6)",collagen IV,significant increase in glomerular collagen IV content
same,Plasma testosterone levels,PAN-nephropathic rats [4],0.92 ± 0.27 ng/mL
